Key:
[1] = test system: PC-9; experiment: In vitro cell experiment (MTT), PC-9; assay type: cell-based; conditions: 72 h, human non-small-cell lung carcinoma cells (EGFR1 19 exon mutation)
Experimental: (§1) Cells in logarithmic growth phase were seeded at a certain density in a 96-well plate (200 μL/well). The cells were allowed to grow for 24 h and subsequently treated with different concentrations of drugs (including a blank group and a control group) and incubated for 72 h at 37° C. Each concentration in a given experiment was tested in triplicate. After 72 h of exposure, 20 μL of the MTT labeling reagent was added to the medium (the final concentration of MTT was 0.5 mg/mL), and the cells were incubated for additional 4 h at 37° C. Following this process, 180 μL of the medium was removed and 130 μL of DMSO was added to each well, or the medium was completely removed and 150 μL of DMSO was added to each well. Then the plate was shaken and mixed in a micro-oscillator. Finally the optical density (OD) of each sample was measured in a micro-plate reader at 550 nm. Cell inhibition rate was calculated according to the following formula: […]
(§2) According to cell inhibition rates, IC50 was calculated by LOGIT method. The experiments were repeated twice and the data was expressed as means±SD.

[2] = test system: H292; experiment: In vitro cell experiment (MTT), H292; assay type: cell-based; conditions: NCI-H292, 72 h, human lung carcinoma cells (EGFR1 overexpressing)
Experimental: as §1, §2

[3] = test system: HCC827; experiment: In vitro cell experiment (MTT), HCC827; assay type: cell-based; conditions: 72 h, human non-small cell lung carcinoma (EGFR1 19 exon mutation)
Experimental: as §1, §2

[4] = test system: A549; experiment: In vitro cell experiment (MTT), A549; assay type: cell-based; conditions: 72 h, human non-small-cell lung carcinoma cells (EGFR1 wildtype)
Experimental: as §1, §2

[5] = Mouse maximum tolerated dose (MTD) experiment; conditions: in vivo, mice, oral, administered 7 days then observed 7 days
Experimental: In the mouse MTD experiment, the mice were administrated with the present compounds.
Healthy mice, having a small difference in body's weights, were chosen. The chosen mice were placed in different layers of cages according to their body's weights. In each layer, the mice were randomly divided into groups. In each group, there were three mice.
The administration dosages were 1000, 500, 250, 125, 62.5 and 31.25 mg/kg respectively and each two dosages differed by a factor of 2. For each of administration dosages, three mice were allotted. The mice were administrated with the present compounds for 7 days and then observed for the next 7 days without the present compounds.
The present compounds were orally administrated with the mice according to the administration dosage and the body weight.

[6] = test system: HT-29; experiment: In vitro cell experiment (MTT), HT-29; assay type: cell-based; conditions: 72 h, human colon carcinoma cells (expressing both c-KIT and PDGFR)
Experimental: as §1, §2

[7] = test system: SK-OV-3; experiment: In vitro cell experiment (MTT), SK-OV-3; assay type: cell-based; conditions: 72 h, human ovarian carcinoma cells (EGFR2 overexpressing)
Experimental: as §1, §2

[8] = test system: A431; experiment: In vitro cell experiment (MTT), A431; assay type: cell-based; conditions: A-431, 72 h, human epidermoid carcinoma (EGFR1 overexpressing)
Experimental: as §1, §2

[9] = test system: HCT116; experiment: In vitro cell experiment (MTT), HCT116; assay type: cell-based; conditions: HCT-116, 72 h, human colon carcinoma cells
Experimental: as §1, §2

[10] = test system: HUVEC; experiment: In vitro cell experiment (MTT), HUVEC; assay type: cell-based; conditions: 72 h, human umbilical vein endothelial cell (KDR overexpressing)
Experimental: as §1, §2

[11] = test system: 3T3swiss; experiment: In vitro cell experiment (MTT), 3T3swiss; assay type: cell-based; conditions: Fibroblast, 72 h, mouse fibroblasts (PDGFR overexpressing)
Experimental: as §1, §2

[12] = test system: Bel-7402; experiment: In vitro cell experiment (MTT), Bel-7402; assay type: cell-based; conditions: 72 h, human hepatoma carcinoma cells
Experimental: as §1, §2

[13] = test system: A375; experiment: In vitro cell experiment (MTT), A375; assay type: cell-based; conditions: A-375, 72 h, human melanoma cells (KDR expressing)
Experimental: as §1, §2

[14] = test system: A498; experiment: In vitro cell experiment (MTT), A498; assay type: cell-based; conditions: 72 h, human renal carcinoma cells
Experimental: as §1, §2

Structure (SMILES)	IC50 [3] [nM]	IC50 [4] [nM]	MTD [5] [mg/kg]	IC50 [7] [nM]	further results
COc1cc2c(Nc3ccc(Br)cc3F)ncnc2cc1OCCCCC(N)=O [Compound 33, 5-(4-(4-bromo-2-fluoroanilino)-6-methoxyquinazolin-7-yl-oxy)pentanamide]	9.5	3570	62.5 to 125	–	IC50 [1]: 8.3 nM; IC50 [2]: 73.4 nM
COc1cc2c(Nc3ccc(F)c(Cl)c3)ncnc2cc1OCCCCCC(N)=O [Compound 24, 6-(4-(3-chloro-4-fluoroanilino)-6-methoxyquinazolin-7-yl-oxy)hexanamide]	5.6	2940	125 to 250	2450	IC50 [2]: 81.8 nM; IC50 [6]: 1840 nM
COc1cc2c(Nc3ccc(Br)cc3F)ncnc2cc1OCc1ccc2c(c1)OCO2 [Compound 1, 4-(4-bromo-2-fluoroanilino)-6-methoxy-7-((1,3-benzodioxole-5-yl)methoxy)quinazoline]	–	–	500 to 1000	–	IC50 [6]: 2820 nM; IC50 [8]: 1410 nM
COc1cc2c(Nc3ccc(Br)cc3F)ncnc2cc1OCCn1c(C)nc2ccccc21 [Compound 8, 4-(4-bromo-2-fluoroanilino)-6-methoxy-7-(2-(2-methyl-1H-benzo[d]imidazole-1-yl)ethoxy)quinazoline]	–	–	–	2770	–
COc1cc2c(Nc3ccc(Br)cc3F)ncnc2cc1Oc1ccc(C(=O)N2CCOCC2)cn1 [Compound 18, (6-(4-(4-bromo-2-fluoroanilino)-6-methoxyquinazolin-7-yl-oxy)pyridine-3-yl)(morpholino)methanone]	–	–	–	–	IC50 [9]: 962 nM
COc1cc2c(Nc3ccc(Br)cc3F)ncnc2cc1OCc1cccc(C#N)c1 [Compound 3, 4-(4-bromo-2-fluoroanilino)-6-methoxy-7-(3-cyanobenzyloxy) quinazoline]	–	–	500 to 1000	2020	IC50 [9]: 892 nM
COc1cc2c(Nc3ccc(F)c(Cl)c3)ncnc2cc1OCCCn1ccnc1 [Compound 25, 4-(3-chloro-4-fluoroanilino)-6-methoxy-7-(3-(1H-imidazole-1-yl)propoxy)quinazoline]	2.6	–	–	–	–
COc1cc2c(Nc3ccc(F)c(Cl)c3)ncnc2cc1OCCn1ccnc1 [Compound 36, 4-(3-chloro-4-fluoroanilino)-6-methoxy-7-(2-(1H-imidazol-1-yl)ethoxy)quinazoline]	–	3640	–	2920	–
COc1cc2c(Nc3ccc(Br)cc3F)ncnc2cc1OCCCCCC(N)=O [Compound 6, 6-(4-(4-bromo-2-fluoroanilino)-6-methoxyquinazolin-7-yl-oxy)hexanamide]	4.7	3930	> 1000	2650	IC50 [2]: 46.9 nM; IC50 [8]: 2100 nM; IC50 [10]: 37.6 nM
COc1cc2c(Nc3ccc(Br)cc3F)ncnc2cc1OCc1cccc(C)n1 [Compound 7, 4-(4-bromo-2-fluoroanilino)-6-methoxy-7-((6-methylpyridine-2-yl)methoxy)quinazoline]	8.6	–	62.5 to 125	–	–
CNC(=O)CCCCCOc1cc2ncnc(Nc3ccc(F)c(Cl)c3)c2cc1OC [Compound 42, N-methyl-6-(4-(3-chloro-4-fluoroanilino)-6-methoxyquinazolin-7-yloxy)hexanamide]	2.8	–	–	–	–
COc1cc2c(Nc3ccc(Br)cc3F)ncnc2cc1OCc1ccc(C(F)(F)F)cc1 [Compound 5, 4-(4-bromo-2-fluoroanilino)-6-methoxy-7-(4-trifluoromethyl-benzyloxy)quinazoline]	–	–	–	–	IC50 [9]: 1040 nM
COc1cc2c(Nc3ccc(Br)cc3F)ncnc2cc1OCc1csc(C)n1 [Compound 17, 4-(4-bromo-2-fluoroanilino)-6-methoxy-7-((2-methylthiazole-4-yl)methoxy)quinazoline]	6.7	–	500 to 1000	–	–
COc1cc2c(Nc3ccc(F)c(Cl)c3)ncnc2cc1OCCCCC(N)=O [Compound 41, 5-(4-(3-chloro-4-fluoroanilino)-6-methoxyquinazolin-7-yl-oxy)pentanamide]	0.9	2710	–	2680	IC50 [2]: 89.9 nM
CNC(=O)CCCCCOc1cc2ncnc(Nc3ccc(Br)cc3F)c2cc1OC [Compound 31, N-methyl-6-(4-(4-bromo-2-fluoroanilino)-6-methoxyquinazolin-7-yloxy)hexanamide]	10.7	–	–	–	–
COc1cc2c(Nc3ccc(Br)cc3F)ncnc2cc1OCCn1ccnc1 [Compound 34, 4-(4-bromo-2-fluoroanilino)-6-methoxy-7-(2-(1H-imidazol-1-yl)ethoxy)quinazoline]	8.2	1290	125 to 250	–	IC50 [1]: 5.7 nM; IC50 [2]: 90.8 nM
COc1cc2c(Nc3ccc(Br)cc3F)ncnc2cc1OCC1CCOCC1 [Compound 15, 4-(4-bromo-2-fluoroanilino)-6-methoxy-7-((tetrahydropyran-4-yl)methoxy)quinazoline]	–	–	–	–	IC50 [8]: 2950 nM
COc1cc2c(Nc3ccc(Br)cc3F)ncnc2cc1OCc1ccc(N2CCOCC2)cc1 [Compound 12, 4-(4-bromo-2-fluoroanilino)-6-methoxy-7-(4-morpholinobenz-yloxy)quinazoline]	–	–	–	–	IC50 [9]: 1090 nM
COc1cc2c(Nc3ccc(Br)cc3F)ncnc2cc1OCCCC(N)=O [Compound 23, 4-(4-(4-bromo-2-fluoroanilino)-6-methoxyquinazolin-7-yl-oxy)butanamide]	5	1410	–	3360	IC50 [11]: 2150 nM
COc1cc2c(Nc3ccc(Br)cc3F)ncnc2cc1OCCCCCC(=O)N(C)C [Compound 32, N, N-dimethyl-6-(4-(4-bromo-2-fluoroanilino)-6-methoxyquinazolin-7-yloxy)hexanamide]	11	2700	500 to 1000	–	IC50 [1]: 6.7 nM
COc1cc2c(Nc3ccc(Br)cc3F)ncnc2cc1OCCc1csc(C)n1 [Compound 26, 4-(4-bromo-2-fluoroanilino)-6-methoxy-7-(2-(2-methylthiazol-4-yl)ethoxy)quinazoline]	1.4	–	–	–	–
COc1cc2c(Nc3ccc(F)c(Cl)c3)ncnc2cc1OCCN1CCCC1 [Compound 20, 4-(3-chloro-4-fluoroanilino)-6-methoxy-7-(2-(pyrrolidine-1-yl)ethoxy)quinazoline]	2.9	2680	125 to 250	–	IC50 [12]: 5740 nM; IC50 [6]: 2230 nM; IC50 [8]: 2140 nM; IC50 [11]: 1720 nM
COc1cc2c(Nc3ccc(F)c(Cl)c3)ncnc2cc1OCc1csc(C)n1 [Compound 27′, 4-(3-chloro-4-fluoroanilino)-6-methoxy-7-((2-methylthiazol-4-yl)methoxy)quinazoline]	6.2	–	–	–	–
COc1cc2c(Nc3ccc(F)c(Cl)c3)ncnc2cc1OCCCCCC(=O)N(C)C [Compound 43, N, N-dimethyl-6-(4-(3-chloro-4-fluoroanilino)-6-methoxyquinazolin-7-yloxy)hexanamide]	4.1	–	–	–	–
COc1cc2c(Nc3ccc(F)c(Cl)c3)ncnc2cc1OCc1cnc(C)s1 [Compound 27, 4-(3-chloro-4-fluoroanilino)-6-methoxy-7-((2-methylthiazol-5-yl)methoxy)quinazoline]	4.6	3890	500 to 1000	–	IC50 [2]: 78.3 nM; IC50 [6]: 2920 nM
COc1cc2c(Nc3ccc(Br)cc3F)ncnc2cc1OCCCn1ccnc1 [Compound 14, 4-(4-bromo-2-fluoroanilino)-6-methoxy-7-(3-(1H-imidazol-1-yl)propoxy)quinazoline]	8.9	–	62.5 to 125	2880	IC50 [2]: 37.4 nM; IC50 [12]: 5940 nM; IC50 [13]: 161 nM; IC50 [9]: 913 nM; IC50 [14]: 2730 nM
